The source of these data is PubChem BioAssay AID1996.

Each structure is given as a SMILES string. Converted amounts (≈) assume the structure as drawn. Bounds are passed on as bounds.

The conditions of the series: buffer; pH 7.4; 200.0 µM.
Take `O=S(=O)(c1ccc(F)cc1)N1CC=C(c2ccccc2)CC1`: the solubility (kinetic) amounted to 2.6 µg/mL (≈ 8.19 µM). As for `CC(OC(=O)Cc1c[nH]c2ccccc12)C(=O)NC1(C#N)CCCCC1` (stereo not drawn), the figure is above 53 µg/mL. As to `N#CCCN(Cc1cccs1)C(=O)Nc1ccc(F)cc1`, the kinetic solubility was above 45.5 µg/mL. For the compound `CCOC(=O)c1ccc(NC(=O)Nc2ccon2)cc1`, the solubility (kinetic) worked out at 6 µg/mL (≈ 21.8 µM).

Turning to `O=C(Nc1ccccc1O)c1ccc2c(c1)C(=O)N(Cc1ccco1)C2=O`, the solubility (kinetic) was found to be 1.3 µg/mL (≈ 3.59 µM). Under `Cc1ccc(-n2c(C)cc(C(=O)CN3CCOCC3)c2C)cc1C` stands above 49 µg/mL; under `Cc1ccc(C(=O)OCC(=O)NC2CC2)s1`, above 35.9 µg/mL.

`Cc1ccc2c(c1)-c1[nH]c(=S)ncc1CS2`: the kinetic solubility came out at 3.8 µg/mL (≈ 15.4 µM). Under `COc1ccc(C(=S)N2CCN(c3cccc(Cl)c3)CC2)cc1` stands 1.2 µg/mL (≈ 3.46 µM); under `CCn1cc(C(=O)NCCC(=O)NCCO)c(=O)c2cc3c(cc21)OCO3`, above 56.3 µg/mL. In turn, `O=C(O)CCCC(=O)Nc1ccc2c(c1)oc1ccccc12` came in with a solubility (kinetic) above 44.6 µg/mL. Take `Cc1cccn2c(=O)cc(COC(=O)C(C)Oc3ccccc3)nc12` (stereo not drawn): the solubility (kinetic) is 46.8 µg/mL (≈ 138 µM).

In turn, `COc1ccc(CCC(=O)NCCc2nc3ccccc3[nH]2)cc1` returned a solubility (kinetic) of 8.8 µg/mL (≈ 27.2 µM).

On to `Cn1ccsc1=NC(=O)c1ccc(CS(C)(=O)=O)cc1`, for which the solubility (kinetic) was above 46.6 µg/mL. `Nc1nnc(SCC(=O)OCC(=O)c2ccccc2)s1`: the kinetic solubility was above 46.4 µg/mL. In the case of `Cc1cccc(OCc2cc(-c3ccccc3)no2)c1C`, the kinetic solubility was below 0.6 µg/mL. Turning to `COc1cccc(Nc2nc(-c3ccccc3)nc3ccccc23)c1`, the kinetic solubility amounted to 3.2 µg/mL (≈ 9.77 µM).

On to `CC(C)C(=O)O/N=C(\N)c1ccc(Oc2ccc(Cl)cc2)c([N+](=O)[O-])c1`, for which the solubility (kinetic) was found to be 3.5 µg/mL (≈ 9.26 µM). With `COC(=O)c1c(C)[nH]c(C(=O)CC#N)c1C`, the solubility (kinetic) came out at 27.2 µg/mL (≈ 124 µM). Against the preceding compound, the solubility kinetic is about 7.8-fold higher.

For `Oc1cccc(C=Nc2cccc3ccccc23)c1O`, the solubility (kinetic) is 18.3 µg/mL (≈ 69.5 µM). With `Cc1onc(-c2ccccc2Cl)c1C(=O)N1CC(C)CC(C)C1` (stereo not drawn), the kinetic solubility is above 49.9 µg/mL. Regarding `O=C(CN1CCCC1)Nc1cc(F)ccc1F`, the kinetic solubility is 35.1 µg/mL (≈ 146 µM). The compound `O=C(NCc1ccc2c(c1)OCO2)c1ccc(Br)s1` had a kinetic solubility of 1.9 µg/mL (≈ 5.58 µM). This solubility kinetic lies about 18-fold lower than the previous one. `COc1ccc(N=C2CCS(=O)(=O)c3sccc32)cc1` registered a kinetic solubility above 46.1 µg/mL.

In the case of `COc1cc(C(C)=O)ccc1OCC(=O)Nc1cc(C)on1`, the solubility (kinetic) came out at 8.3 µg/mL (≈ 27.3 µM). As for `COc1ccc(-c2ccc(CCC(=O)O)n2-c2ccccc2O)cc1`, the solubility (kinetic) was above 50.6 µg/mL. Turning to `CN1CCN(c2nc3ccccn3c(=O)c2C=C(C#N)C#N)CC1`, the kinetic solubility stood at 48 µg/mL (≈ 150 µM). `CC(C#N)Sc1ccc(S(=O)(=O)N2CCCCC2)cn1` (stereo not drawn) had a kinetic solubility of 9.4 µg/mL (≈ 30.2 µM).

`COc1cc(C(=O)OCC(=O)NC2CCCC2)cc(OC)c1OC` returned a kinetic solubility above 50.6 µg/mL. Compound `CCOC(=O)C1CCN(CC(O)COCc2ccc(Cl)cc2)CC1.Cl` (stereo not drawn) displayed a kinetic solubility of 57.5 µg/mL. Under `CN(C(=O)COC(=O)c1ccc(Cl)cc1N)C1CCCCC1` stands 0.7 µg/mL (≈ 2.16 µM); under `CN(Cc1cccc(F)c1)C(=O)C1CC(=O)N(c2ccc3c(c2)OCCO3)C1` (stereo not drawn), above 57.7 µg/mL; under `CC(NS(=O)(=O)c1ccc2[nH]c(=O)c(=O)[nH]c2c1)C(=O)O` (stereo not drawn), 13.9 µg/mL (≈ 44.4 µM).

On to `Cc1ccc(C(=O)Nc2ccc(C(F)(F)F)n(C)c2=O)cc1`, for which the kinetic solubility was determined as 2.1 µg/mL (≈ 6.77 µM). `Cc1cc(C(=O)Nc2sccc2C#N)c2ccccc2n1` came in with a kinetic solubility of 20.8 µg/mL (≈ 70.9 µM). `CN(C1(C)CCS(=O)(=O)C1)S(=O)(=O)c1cccc([N+](=O)[O-])c1` (stereo not drawn): the solubility (kinetic) was above 52.3 µg/mL. Consider `COc1ccccc1NC(=O)C1(c2ccccc2)CCCC1`, for which the kinetic solubility came out at 7.9 µg/mL (≈ 26.7 µM).

The compound `S=c1[nH]nc(C2CCCCC2)o1` returned a kinetic solubility above 27.6 µg/mL.

The compound `CC(=O)c1cccc(S(=O)(=O)NCCC(=O)O)c1` displayed a solubility (kinetic) of 25.4 µg/mL (≈ 93.6 µM). Under `CCOC(=O)Cc1csc(NC(=O)c2cc(=O)c3ccccc3o2)n1` stands 51.8 µg/mL (≈ 145 µM); under `CC1C(=O)Nc2ccccc2N1C(=O)c1ccc(Cl)c(Cl)c1` (stereo not drawn), 36.2 µg/mL (≈ 108 µM); under `O=C(CCSCc1cccc(F)c1)NCCc1ccccc1`, 18.4 µg/mL (≈ 58 µM). The compound `O=C(Nc1cccc(C(=O)NC2CCCCC2)c1)c1ccccc1` showed a solubility (kinetic) of 2.8 µg/mL (≈ 8.68 µM). With `CSc1ncc(Cl)c(C(=O)Nc2ccccc2[N+](=O)[O-])n1`, the kinetic solubility was below 0.2 µg/mL. Compound `O=CN1CCN(CC(O)Cn2c3ccccc3c3ccccc32)CC1` (stereo not drawn) registered a solubility (kinetic) of 43.3 µg/mL (≈ 128 µM). `Cl.NC1(C(=O)O)CC1`: the solubility (kinetic) was above 20.6 µg/mL. As for `CCOC(=O)c1c(C)nc(C(Cl)(Cl)Cl)nc1N`, the kinetic solubility is 21.7 µg/mL (≈ 72.7 µM). In turn, `NC(=O)c1cc(S(=O)(=O)N2CCc3ccccc3C2)cs1` had a kinetic solubility of 2 µg/mL (≈ 6.2 µM). Against the preceding compound, the solubility kinetic is about 11-fold lower.

With `O=C(/C=C1\SC(=O)NC1=O)Nc1ccc(C(=O)O)cc1`, the solubility (kinetic) is above 43.8 µg/mL. Compound `COc1ccc(C=NOCC(=O)OCC(=O)Nc2ccc(OC)cc2)cc1` yielded a kinetic solubility of 16.1 µg/mL (≈ 43.2 µM). In turn, `O=C(CCc1ccccc1)NCc1ccncc1` gave a kinetic solubility above 36 µg/mL.

`COc1ccc(CCNC(=O)CSc2ccccn2)cc1` gave a solubility (kinetic) above 45.4 µg/mL. As for `COc1ccc(NS(=O)(=O)c2cn(C)c(=O)n(C)c2=O)cc1`, the kinetic solubility is above 48.8 µg/mL. Take `CN(C)CC#CCn1c2ccccc2c2ccccc21.Cl`: the kinetic solubility is above 44.8 µg/mL. In turn, `O=S(=O)(Nc1ccc(OC(F)(F)F)cc1)c1cccc2nonc12` showed a kinetic solubility of 46.1 µg/mL (≈ 128 µM). In turn, `Cc1csc(NC(=O)CSCC(=O)O)c1-c1nc2ccccc2s1` returned a kinetic solubility of 48.6 µg/mL (≈ 128 µM).

Compound `COc1ccc(C(=O)N2CCC2)cc1S(=O)(=O)NCc1ccc(Cl)cc1` showed a solubility (kinetic) of 57.4 µg/mL (≈ 145 µM). Turning to `NS(=O)(=O)c1cccc(NC(=O)c2ccc(S(=O)(=O)N3CCCCCC3)cc2)c1`, the kinetic solubility came to 7.1 µg/mL (≈ 16.2 µM). `O=C(COc1ncnc2ccccc12)Nc1ccccc1[N+](=O)[O-]` returned a solubility (kinetic) of 14.6 µg/mL (≈ 45 µM).

Consider `CN(C)CCCN1C(=O)CSC1c1ccc([N+](=O)[O-])cc1.Cl` (stereo not drawn), for which the solubility (kinetic) worked out at 47.6 µg/mL.

`CC(=O)Nc1ccc(S(=O)(=O)NC(C)c2ccncc2)cc1` (stereo not drawn) showed a kinetic solubility above 47.9 µg/mL.

Compound `Cl.OC(CNCc1ccc(Cl)c(Cl)c1)c1ccccc1` (stereo not drawn) gave a kinetic solubility of 47.7 µg/mL. Compound `Cc1ccc(C)c(OCCC(=O)OCC(=O)Nc2cc(S(=O)(=O)N3CCCCC3)ccc2C)c1` came in with a kinetic solubility of 13.9 µg/mL (≈ 28.4 µM). `O=C(CSc1nc2ncccc2[nH]1)NCc1ccco1` gave a solubility (kinetic) above 43.2 µg/mL.

`Cn1c(=O)oc2cc(S(=O)(=O)Nc3ccc(O)cc3)ccc21` came in with a solubility (kinetic) above 48 µg/mL.

The compound `COc1ccc(NC(=O)O/N=C/c2ccccc2Cl)cc1` displayed a solubility (kinetic) of 17.7 µg/mL (≈ 58.1 µM). `N/C(CSc1ccccn1)=N\OCc1c(Cl)cccc1Cl` registered a solubility (kinetic) of 29 µg/mL (≈ 84.7 µM). With `O=C(c1ccc([N+](=O)[O-])o1)N1CCN(Cc2ccccc2)CC1`, the solubility (kinetic) worked out at 9.2 µg/mL (≈ 29.2 µM).

Consider `O=C(/C=C\c1ccccc1)Nc1ccc(NC(=O)c2ccco2)cc1`, for which the solubility (kinetic) was below 0.4 µg/mL.

Compound `CN1CCN(C(=O)c2cc([N+](=O)[O-])cc([N+](=O)[O-])c2)CC1` registered a kinetic solubility of 31.4 µg/mL (≈ 107 µM).

With `CN(C)C(=S)Nc1ccc2c(c1)OCCO2`, the solubility (kinetic) was above 35.7 µg/mL.

Consider `CCOc1cc(/C=C2/C(=O)ON=C2C)cc(Br)c1O`, for which the solubility (kinetic) is above 48.9 µg/mL. As for `CCC(=O)Nc1ccc2c(c1)nc(CCN1CCC(C)CC1)n2C`, the figure is above 49.3 µg/mL.

As usually defined, the solubility (kinetic) is solubility judged after dilution from a stock solution rather than from solid.
